{
  "source": "patent US5229413A",
  "about": "“Compositions containing indole-2-carboxylate compounds for treatment of CNS disorders” (G. D. Searle & Co., priority 1992, dated 1993)",
  "key": {"[1]": {"target": "N-methyl-D-aspartate (NMDA) receptor site", "assay": "Glutamate (NMDA) binding assay, L-[3H]glutamate, synaptic plasma membranes", "settings": "L-[3H]glutamate 12.5 nM, pH 7.4, 0-4° C.; read-out: Ki apparent, NMDA", "description": "The purpose of this assay is to determine the binding affinity of a compound of Formula I for the N-methyl-D-aspartate (NMDA) receptor site. This procedure was carried out as follows:\nSynaptic plasma membranes (SPM) were prepared as previously described [Monahan, J. B. and Michel, J., \"Identification and Characterization of an N-methyl-D-aspartate-specific L-[^3 H]glutamate Recognition Site in Synaptic Plasma Membranes, J. Neurochem., 48, 1699-1708 (1987)]. The SPM were stored at a concentration of 10-15 mg/ml in 0.32 M sucrose, 0.5 mM EDTA, 1 mM MgSO4, 5 mM Tris/SO4, pH 7.4, under liquid nitrogen. The identity and purity of the subcellular fractions were confirmed by both electron microscopy and marker enzymes. Protein concentrations were determined by using a modification of the method of Lowry [Ohnishi, S. T. and Barr, J. K., \"A Simplified Method of Quantitating Proteins Using the Biuret and Phenol Reagents\", Anal. Biochem., 86, 193-197 (1978)]. The SPM were thawed at room temperature, diluted twenty-fold with 50 mM Tris/acetate, pH 7.4, incubated at 37° C. for 30 minutes, and centrifuged at 100,000 g for 15 minutes. The dilution, incubation, and centrifugation was repeated a total of three times. This general method involved adding 12.5 nM of the L-[^3 H]glutamate radioligand to the appropriate concentration of the test compound and initiating the assay by the addition of ice cold SPM (0.2-0.45 mg). The binding assays were performed in 1.5 ml centrifuge tubes with the total volume adjusted to 1.0 ml. Additions of test compounds were made in 50 mM Tris/acetate, pH 7.4 and incubations were carried out at 0°-4° C. The incubation time for the NMDA binding assay was 10 minutes. To terminate the incubation, the samples were centrifuged for 15 minutes at 12,000 g and 4° C. in a Beckman Microfuge 12. The supernatant was aspirated and the pelleted membranes dissolved in Beckman Ready-Protein scintillation cocktail and the samples counted on a Beckman LS 5800 or 3801 liquid scintillation counter with automatic corrections for quenching and counting efficiency. Nonspecific binding was defined as the residual binding in the presence of 0.5 mM NMDA and was typically 15-25% of the total binding in the NMDA binding assay. Radioligand binding to the SPM was analyzed using Scatchard and Hill transformations and the Ki values of the compounds determined using logit-log transformations. Calculations and regression analysis were performed using templates developed for Lotus 1, 2, 3 as previously described [Pullan, L. M. \"Automated Radioligand Receptor Binding Analysis with Templates for Lotus\", Computer Appln. Biosci., 3 131 (1987)]. Binding results are reported in Table II for example compounds of the invention."}, "Cerebellar cGMP": {"test_system": "Cerebellar cGMP", "assay": "Assay for effect on cGMP (cerebellum, intracisternal injection)", "assay_type": "in vivo, Swiss Hausche mice", "settings": "± SEM", "description": "Male Swiss Hausche mice (25-30 g) were injected intracisternally (i.c.t.) with glycine agonists 10 minutes prior to sacrifice by focussed microwave irradiation. Compounds of the invention were injected intracisternally 2 minutes prior to the agonist. For intracisternal injections, al agonists were dissolved in HCl and diluted with isotonic saline prior to adjustment of the pH to between 6 and 7 with NaOH. The compounds of the invention were dissolved in isotonic saline and all compounds were administered in a volume of 5 μl.\nHydrochloric acid in extracts of the cerebellum were freeze-dried for assay of cGMP with a commercial RIA kit (NEN). Protein determinations (Lowery) and statistics (Dunett's t-test) were performed as described previously [P. L. Wcod et al., Neurochem., 19, 975-982 (1980)]. Groups consisted of 7-10 mice."}},
  "note": "pKi: −log10 of the molar value.",
  "data": [
    {"smiles": "O=C(O)Cc1c(C(=O)O)[nH]c2cc(Cl)ccc12", "note": "[Compound No. 6, 2-carboxy-6-chloro-3-indoleacetic acid]", "values": [
      {"measurement": "pKi", "setting": "[1]", "value": "< 4.00"},
      {"measurement": "Cerebellar cGMP", "setting": "Cerebellar cGMP; Compound No. 6 (5 μg) alone", "value": "3.5 ± 0.55", "unit": "pmol/mg protein"},
      {"measurement": "Cerebellar cGMP", "setting": "Cerebellar cGMP; D-Serine (100 μg) + Compound No. 6 (5 μg)", "value": "5.8 ± 0.96", "unit": "pmol/mg protein"}
    ]}
  ]
}
